Data as given in ChEMBL document CHEMBL1201861, “Genomics of Drug Sensitity in Cancer screening data, Wellcome Trust Sanger Institute”.

Legend:
SU-DHL-1 = experiment: SANGER: Inhibition of human SU-DHL-1 cell growth in a cell viability assay.; type: functional, cell-based
MeWo = experiment: cells; type: functional, cell-based, Homo sapiens;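 note: growth inhibition of MeWo cells, determined by a cell viability readout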
Description: SANGER: Inhibition of human Mewo cell growth in a cell viability assay.

MONO-MAC-6 = experiment: cells; type: functional, cell-based, Homo sapiens;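 note: cell viability assay measuring growth inhibition of human MONO-MAC-6 cells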
Description: SANGER: Inhibition of human MONO-MAC-6 cell growth in a cell viability assay.

NCI-H727 = experiment: cells; type: functional, cell-based, Homo sapiens;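 note: growth inhibition of human NCI-H727 cells, read out with a cell viability assay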
Description: SANGER: Inhibition of human NCI-H727 cell growth in a cell viability assay.

Raji = experiment: cells; type: functional, cell-based, Homo sapiens;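 note: cell viability assay measuring inhibition of Raji cell growth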
Description: SANGER: Inhibition of human Raji cell growth in a cell viability assay.

SK-MEL-30 = experiment: cells; type: functional, cell-based, Homo sapiens;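 note: growth inhibition of SK-MEL-30 cells, determined with a cell viability assay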
Description: SANGER: Inhibition of human SK-MEL-30 cell growth in a cell viability assay.

NCI-H441 = experiment: cells; type: functional, cell-based, Homo sapiens;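 note: growth inhibition of NCI-H441 cells, read out with a cell viability assay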
Description: SANGER: Inhibition of human NCI-H441 cell growth in a cell viability assay.

KYSE-510 = experiment: cells; type: functional, cell-based, Homo sapiens;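 note: cell viability readout used to measure how strongly growth of the cell line is suppressed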
Description: SANGER: Inhibition of human KYSE-510 cell growth in a cell viability assay.

HT1197 = experiment: cells; type: functional, cell-based, Homo sapiens, HT-1197
Description: SANGER: Inhibition of human HT-1197 cell growth in a cell viability assay.

OPM-2 = experiment: cells; type: functional, cell-based, Homo sapiens;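 note: growth of OPM-2 cells measured with a viability assay, IC50 for suppression of proliferation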
Description: SANGER: Inhibition of human OPM-2 cell growth in a cell viability assay.

KYSE-180 = experiment: cells; type: functional, cell-based, Homo sapiens;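 note: growth inhibition of KYSE-180 cells, read out with a cell viability assay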
Description: SANGER: Inhibition of human KYSE-180 cell growth in a cell viability assay.

HuCCT-1 = experiment: cells; type: functional, cell-based, Homo sapiens, HuCCT1;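 note: growth inhibition of HuCCT-1 cells, read out by a cell viability assay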
Description: SANGER: Inhibition of human HuCCT1 cell growth in a cell viability assay.

G-401 = experiment: cells; type: functional, cell-based, Homo sapiens
Description: SANGER: Inhibition of human G-401 cell growth in a cell viability assay.

COR-L105 = experiment: cells; type: functional, cell-based, Homo sapiens
Description: SANGER: Inhibition of human COR-L105 cell growth in a cell viability assay.

CaR-1 = experiment: cells; type: functional, cell-based, Homo sapiens;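 note: growth inhibition of human CaR-1 cancer cells, read out with a cell viability assay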
Description: SANGER: Inhibition of human CaR-1 cell growth in a cell viability assay.

MDA-MB-415 = experiment: cells; type: functional, cell-based, Homo sapiens
SCC-4 = experiment: cells; type: functional, cell-based, Homo sapiens;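 note: growth inhibition of human SCC-4 cells, read out as cell viability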
Description: SANGER: Inhibition of human SCC-4 cell growth in a cell viability assay.

T84 = experiment: cells; type: functional, cell-based, Homo sapiens;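 note: growth inhibition measured with a cell viability readout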
Description: SANGER: Inhibition of human T84 cell growth in a cell viability assay.

COR-L279 = experiment: SANGER: Inhibition of human COR-L279 cell growth in a cell viability assay.; type: functional, cell-based
CESS = experiment: SANGER: Inhibition of human CESS cell growth in a cell viability assay.; type: functional, cell-based
WSU-NHL = experiment: cells; type: functional, cell-based, Homo sapiens;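 note: growth inhibition of human WSU-NHL cells, read out with a cell viability assay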
Description: SANGER: Inhibition of human WSU-NHL cell growth in a cell viability assay.

U-118-MG = experiment: cells; type: functional, cell-based, Homo sapiens
Description: SANGER: Inhibition of human U-118-MG cell growth in a cell viability assay.

RCM-1 = experiment: cells; type: functional, cell-based, Homo sapiens;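 note: growth inhibition of the RCM-1 line, determined with a cell viability readout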
Description: SANGER: Inhibition of human RCM-1 cell growth in a cell viability assay.

NCI-H2405 = experiment: cells; type: functional, cell-based, Homo sapiens;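 note: growth inhibition of the human cell line, read out with a cell viability assay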
Description: SANGER: Inhibition of human NCI-H2405 cell growth in a cell viability assay.

SCC-3 = experiment: cells; type: functional, cell-based, Homo sapiens;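 note: cell viability assay measuring inhibition of SCC-3 cell growth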
Description: SANGER: Inhibition of human SCC-3 cell growth in a cell viability assay.

NCI-H1436 = experiment: cells; type: functional, cell-based, Homo sapiens;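 note: growth suppression of human NCI-H1436 cells, determined with a cell viability readout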
Description: SANGER: Inhibition of human NCI-H1436 cell growth in a cell viability assay.

GMS-10 = experiment: cells; type: functional, cell-based, Homo sapiens;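 note: growth inhibition of GMS-10 cells, read out as cell viability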
Description: SANGER: Inhibition of human GMS-10 cell growth in a cell viability assay.

UMUC3 = experiment: cells; type: functional, cell-based, Homo sapiens;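 note: growth inhibition of human UM-UC-3 cells, read out with a cell viability assay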
Description: SANGER: Inhibition of human UM-UC-3 cell growth in a cell viability assay.

OE33 = experiment: cells; type: functional, cell-based, Homo sapiens;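 note: growth inhibition of human OE33 cells, measured by a cell viability assay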
Description: SANGER: Inhibition of human OE33 cell growth in a cell viability assay.

NCI-H2452 = experiment: cells; type: functional, cell-based, Homo sapiens;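 note: growth inhibition of NCI-H2452 cells, read out with a cell viability assay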
Description: SANGER: Inhibition of human NCI-H2452 cell growth in a cell viability assay.

KYSE-150 cell line = experiment: cells; type: functional, cell-based, Homo sapiens;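 note: growth inhibition of human KYSE-150 cells, read out with a cell viability assay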
Description: SANGER: Inhibition of human KYSE-150 cell growth in a cell viability assay.

NCI-H2030 = experiment: cells; type: functional, cell-based, Homo sapiens;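 note: growth inhibition of human NCI-H2030 cells, read out by a cell viability assay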
Description: SANGER: Inhibition of human NCI-H2030 cell growth in a cell viability assay.

HCC1599 = experiment: cells; type: functional, cell-based, Homo sapiens;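 note: growth inhibition of HCC1599 cells, read out in a cell viability assay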
Description: SANGER: Inhibition of human HCC1599 cell growth in a cell viability assay.

M059J = experiment: cells; type: functional, cell-based, Homo sapiens;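 note: growth inhibition of M059J cells, read out with a cell viability assay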
Description: SANGER: Inhibition of human M059J cell growth in a cell viability assay.

Ca9-22 = experiment: cells; type: functional, cell-based, Homo sapiens;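 note: growth inhibition of Ca9-22 cells, read out with a cell viability assay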
Description: SANGER: Inhibition of human Ca9-22 cell growth in a cell viability assay.

RT-112 = experiment: cells; type: functional, cell-based, Homo sapiens
Description: SANGER: Inhibition of human RT-112 cell growth in a cell viability assay.

D-542MG = experiment: cells; type: functional, cell-based, Homo sapiens
Description: SANGER: Inhibition of human D-542MG cell growth in a cell viability assay.

JIYOYE = experiment: cells; type: functional, cell-based, Homo sapiens
Description: SANGER: Inhibition of human JiyoyeP-2003 cell growth in a cell viability assay.

RD = experiment: cells; type: functional, cell-based, Homo sapiens
Description: SANGER: Inhibition of human RD cell growth in a cell viability assay.

AGS = experiment: cells; type: functional, cell-based, Homo sapiens;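 note: growth inhibition of AGS cells, determined with a cell viability assay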
Description: SANGER: Inhibition of human AGS cell growth in a cell viability assay.

HT-1376 = experiment: cells; type: functional, cell-based, Homo sapiens
Description: SANGER: Inhibition of human HT-1376 cell growth in a cell viability assay.

H4 = experiment: cells; type: functional, cell-based, Homo sapiens
Description: SANGER: Inhibition of human H4 cell growth in a cell viability assay.

NCI-H1563 = experiment: cells; type: functional, cell-based, Homo sapiens;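 note: growth inhibition of human NCI-H1563 cells, read out with a cell viability assay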
Description: SANGER: Inhibition of human NCI-H1563 cell growth in a cell viability assay.

COLO-792 = experiment: cells; type: functional, cell-based, Homo sapiens
Description: SANGER: Inhibition of human COLO-792 cell growth in a cell viability assay.

SW837 = experiment: cells; type: functional, cell-based, Homo sapiens;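 note: growth inhibition of SW837 cells, determined with a cell viability assay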
Description: SANGER: Inhibition of human SW837 cell growth in a cell viability assay.

NCI-H358 = experiment: cells; type: functional, cell-based, Homo sapiens;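 note: growth inhibition of NCI-H358 human cells, read out with a cell viability assay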
Description: SANGER: Inhibition of human NCI-H358 cell growth in a cell viability assay.

THP-1 = experiment: cells; type: functional, cell-based, Homo sapiens;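 note: growth inhibition of THP-1 cells, read out via a cell viability assay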
Description: SANGER: Inhibition of human THP-1 cell growth in a cell viability assay.

BLEOMYCIN
IC50 (SU-DHL-1; su-dhl-1): 2.05 µM | IC50 (MeWo; mewo): 148 µM | IC50 (MONO-MAC-6; mono-mac-6): 4.59 µM | IC50 (NCI-H727; nci-h727): 10.3 µM | IC50 (Raji; raji): 1.85 µM | IC50 (SK-MEL-30; sk-mel-30): 0.377 µM | IC50 (NCI-H441; nci-h441): 9.05 µM | IC50 (KYSE-510; kyse-510): 1.86 µM | IC50 (HT1197; ht-1197): 2.74 µM | IC50 (OPM-2; opm-2): 104 µM | IC50 (KYSE-180; kyse-180): 3.8 µM | IC50 (HuCCT-1; hucct1): 10.9 µM | IC50 (G-401; g-401): 3.29 µM | IC50 (COR-L105; cor-l105): 7.37 µM | IC50 (CaR-1; car-1): 4.45 µM | IC50 (MDA-MB-415; mda-mb-415): 67.3 µM | IC50 (SCC-4; scc-4): 2.43 µM | IC50 (T84; t84): 13.5 µM | IC50 (COR-L279; cor-l279): 25.4 µM | IC50 (CESS; cess): 0.000546 µM | IC50 (WSU-NHL; wsu-nhl): 31.6 µM | IC50 (U-118-MG; u-118-mg): 65.7 µM | IC50 (RCM-1; rcm-1): 1.26 µM | IC50 (NCI-H2405; nci-h2405): 4.28 µM | IC50 (SCC-3; scc-3): 3.21 µM | IC50 (NCI-H1436; nci-h1436): 2770 µM | IC50 (GMS-10; gms-10): 2110 µM | IC50 (UMUC3; umuc3): 0.956 µM | IC50 (OE33; oe33): 2.75 µM | IC50 (NCI-H2452; nci-h2452): 2140 µM | IC50 (KYSE-150 cell line; kyse-150): 0.00265 µM | IC50 (NCI-H2030; nci-h2030): 5.22 µM | IC50 (HCC1599; hcc1599): 3.37 µM | IC50 (M059J; m059j): 3.77 µM | IC50 (Ca9-22; ca9-22): 0.746 µM | IC50 (RT-112; rt-112): 2.32 µM | IC50 (D-542MG; d-542mg): 60.3 µM | IC50 (JIYOYE; jiyoye): 3.38 µM | IC50 (RD; rd): 106 µM | IC50 (AGS; ags): 0.503 µM | IC50 (HT-1376; ht-1376): 9.74 µM | IC50 (H4; h4): 0.321 µM | IC50 (NCI-H1563; nci-h1563): 20.6 µM | IC50 (COLO-792; colo-792): 26.4 µM | IC50 (SW837; sw837): 1.61 µM | IC50 (NCI-H358; nci-h358): 0.373 µM | IC50 (THP-1; thp-1): 92.5 µM

CCC/C=C/C=C/C(=O)O[C@H]1/C(=C/C(=O)OC)C[C@H]2C[C@H]([C@@H](C)O)OC(=O)C[C@H](O)C[C@@H]3C[C@H](OC(C)=O)C(C)(C)[C@](O)(C[C@@H]4C/C(=C/C(=O)OC)C[C@H](/C=C/C(C)(C)[C@]1(O)O2)O4)O3 [BRYOSTATIN 1]
IC50 (SU-DHL-1; Homo sapiens, SU-DHL-1): > 0.008 µM | IC50 (MeWo; Homo sapiens, MeWo): > 0.008 µM | IC50 (MONO-MAC-6; Homo sapiens, MONO-MAC-6): > 0.008 µM | IC50 (NCI-H727; Homo sapiens, NCI-H727): > 0.008 µM | IC50 (Raji; Homo sapiens, Raji): > 0.008 µM | IC50 (SK-MEL-30; Homo sapiens, SK-MEL-30): > 0.008 µM | IC50 (NCI-H441; Homo sapiens, NCI-H441): > 0.008 µM | IC50 (KYSE-510; Homo sapiens, KYSE-510): > 0.008 µM | IC50 (HT1197; Homo sapiens, HT1197): > 0.008 µM | IC50 (OPM-2; Homo sapiens, OPM-2): > 0.008 µM | IC50 (KYSE-180; Homo sapiens, KYSE-180): > 0.008 µM | IC50 (HuCCT-1; Homo sapiens, HuCCT-1): > 0.008 µM | IC50 (G-401; Homo sapiens, G-401): > 0.008 µM | IC50 (COR-L105; Homo sapiens, COR-L105): > 0.008 µM | IC50 (CaR-1; Homo sapiens, CaR-1): > 0.008 µM | IC50 (MDA-MB-415; Homo sapiens, MDA-MB-415): > 0.008 µM | IC50 (SCC-4; Homo sapiens, SCC-4): > 0.008 µM | IC50 (T84; Homo sapiens, T84): > 0.008 µM | IC50 (COR-L279; Homo sapiens, COR-L279): > 0.008 µM | IC50 (CESS; Homo sapiens, CESS): > 0.008 µM | IC50 (WSU-NHL; Homo sapiens, WSU-NHL): > 0.008 µM | IC50 (U-118-MG; Homo sapiens, U-118-MG): > 0.008 µM | IC50 (RCM-1; Homo sapiens, RCM-1): > 0.008 µM | IC50 (NCI-H2405; Homo sapiens, NCI-H2405): > 0.008 µM | IC50 (SCC-3; Homo sapiens, SCC-3): > 0.008 µM | IC50 (NCI-H1436; Homo sapiens, NCI-H1436): > 0.008 µM | IC50 (GMS-10; Homo sapiens, GMS-10): > 0.008 µM | IC50 (UMUC3; Homo sapiens, UMUC3): > 0.008 µM | IC50 (OE33; Homo sapiens, OE33): > 0.008 µM | IC50 (NCI-H2452; Homo sapiens, NCI-H2452): > 0.008 µM | IC50 (KYSE-150 cell line; Homo sapiens, KYSE-150): > 0.008 µM | IC50 (NCI-H2030; Homo sapiens, NCI-H2030): > 0.008 µM | IC50 (HCC1599; Homo sapiens, HCC1599): > 0.008 µM | IC50 (M059J; Homo sapiens, M059J): 0.002 µM | IC50 (Ca9-22; Homo sapiens, Ca9-22): > 0.008 µM | IC50 (RT-112; Homo sapiens, RT-112): > 0.008 µM | IC50 (D-542MG; Homo sapiens, D-542MG): 0.00756 µM | IC50 (JIYOYE; Homo sapiens, JIYOYE): > 0.008 µM | IC50 (RD; Homo sapiens, RD): > 0.008 µM | IC50 (AGS; Homo sapiens, AGS): > 0.008 µM | IC50 (HT-1376; Homo sapiens, HT-1376): > 0.008 µM | IC50 (H4; Homo sapiens, H4): > 0.008 µM | IC50 (NCI-H1563; Homo sapiens, NCI-H1563): > 0.008 µM | IC50 (COLO-792; Homo sapiens, COLO-792): > 0.008 µM | IC50 (SW837; Homo sapiens, SW837): > 0.008 µM | IC50 (NCI-H358; Homo sapiens, NCI-H358): > 0.008 µM | IC50 (THP-1; Homo sapiens, THP-1): > 0.008 µM
